US6060608A, “Analogs of CC-1065 and the duocarmycins” (The Scripps Research Institute, priority 1999, dated 2000)

Assays:
DNA [1] = details: cited from earlier work
w794 duplex DNA [2] = details: unnatural enantiomers; prior comparison; cited from earlier work
w794 duplex DNA [3] = assay: DNA alkylation selectivity and efficiency within w794 DNA, thermally-induced strand cleavage and PAGE; assay type: biochemical, SV40
Method in brief: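 5′-32P end-labeled w794 duplex DNA in TE buffer (pH 7.2–7.5) incubated with agent in DMSO across concentrations, 4–37 °C for 24–76 h depending on agent. Unbound agent removed by EtOH precipitation; thermolysis 100 °C, 30 min cleaves alkylation sites, mapped by denaturing 8% PAGE beside Sanger standards and autoradiography.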

[4] = tested on: w794 DNA, 5'-AATTA high affinity site; assay: Relative rate of DNA alkylation at the w794 5'-AATTA high affinity site; assay type: biochemical, SV40; details: 25° C.
Experimental: Rate of DNA Alkylation. The relative rates of DNA alkylation for the natural enantiommers of CCBI-TMI (35) and CCBI-indole2 (37) versus those of the corresponding CBI and MCBI agents were measured at the single high affinity site in w794, 5'-AATTA. The relative rates earlier studies of DNA alkylation for MCBI-TMI, CBI-TMI, and duocarmycin SA were determined to be quite similar at 4° C., 1.8:1.0:0.9, respectively. […] In prior studies, we have highlighted similar observations with agents that span a much larger range of relative reactivities.
The DNA alkylation selectivity and efficiency of the natural enantiomers of 304-307 were compared with that of 1 in w794 DNA. […] These trends in the overall efficiency of DNA alkylation parallel the relative trends in cytotoxic potency.
(§1) DNA Alkylation Relative Rate of (+)-CCBI-TMI (35), (+)-CBI-TMI, and (+)-MCBI-TMI. Following the procedure detailed above, Eppendorf tubes containing 5' end-labeled w794 DNA (9 μL) in TE buffer (pH 7.5) were treated with (+)-CCBI-TMI (35), (+)-CBI-TMI, or (+)-MCBI-TMI (1 μL, 10^-6 M in DMSO). The solutions were mixed and incubated at 25° C. for 2, 4, 6, 9, 12, 15, and 24 h, respectively. Subsequent isolation of the alkylated DNA by EtOH precipitation, resuspension in TE buffer (10 μL, pH 7.5), thermolysis (30 min, 100° C.), PAGE, and autoradiography were conducted as detailed above. Relative rates for alkylation at the w794 high-affinity 5'-AATTA site were derived from the slopes of the plots of percent integrated optical density (IOD) of the high-affinity alkylation cleavage bands versus time.
as §1, with “(+)-CCBI-indole2 (37), (+)-CBI-indole2,” for “(+)-CCBI-TMI (35), (+)-CBI-TMI,”, “(+)-MCBI-indole2.” for “(+)-MCBI-TMI.”, “(+)-CCBI-indole2 (37), (+)-CBI-indole2, and (+)-MCBI-indole2” for “(+)-CCBI-TMI (35), (+)-CBI-TMI, or (+)-MCBI-TMI”

[5] = In vitro cytotoxic activity (cell line not given); assay type: cell-based
[6] = tested on: w794 DNA, 5'-AATTA high affinity site; details: 4° C., earlier studies, 1.8:1.0:0.9; cited from earlier work
[7] = tested on: w794 DNA, 5'-AATTA high affinity site; assay: Relative rate of DNA alkylation at the w794 5'-AATTA high affinity site; assay type: biochemical, SV40; details: 10^-5 M, 25° C., 1-72 h
DNA [8] = details: cited from earlier work; remark: listed apart in the source
[9] = in vivo; cited from earlier work
[10] = cited from earlier work
[11] = cited from earlier work; remark: listed apart in the source

For `Cc1c(N)nc([C@H](CC(N)=O)NC[C@H](N)C(N)=O)nc1C(=O)N[C@H](C(=O)N[C@H](C)[C@@H](O)[C@H](C)C(=O)N[C@H](C(=O)NCCc1nc(-c2nc(C(=O)NCCC[S+](C)C)cs2)cs1)[C@@H](C)O)[C@@H](O[C@@H]1O[C@@H](CO)[C@@H](O)[C@H](O)[C@@H]1O[C@H]1O[C@H](CO)[C@@H](O)[C@H](OC(N)=O)[C@@H]1O)c1c[nH]cn1.[Br-]` [compound 104], the “apparent binding site size” value (DNA [1]) is listed as 3.8 base-pairs and the Kd (DNA [1]; dna, read-out: apparent DNA binding constant Kapp) is listed as 10 µM.
In the case of `COc1cc2cc(C(=O)N3CC4CC45C3=CC(=O)c3ccccc35)[nH]c2c(OC)c1OC` (single isomer, unassigned; (-)) [(-)-CBI-TMI], the “distinction in DNA alkylation efficiency from ent-(-)-duocarmycin SA” value (w794 duplex DNA [2]) is listed as 10 ×.
In the case of `COC(=O)c1cc2c([nH]1)C(=O)C=C1N(C(=O)c3cc4cc(OC)c(OC)c(OC)c4[nH]3)CC3CC123` (stereo not drawn) [duocarmycin SA], the “DNA alkylation properties, comparison in words” value (w794 duplex DNA [3]) is reported as “exhibited the same selectivity and efficiency of DNA alkylation”, the “concentration of detectable alkylation of high affinity site 5'-AATTA” value (w794 duplex DNA [3]; 25° C., 24 h) is reported as 10^-6 to 10^-7 M and the “relative rate of DNA alkylation, TMI series” value ([4]; 10^-6 M) is reported as 0.9 ×. The “properties relative to duocarmycin SA or 304” value [5] was “indistinguishable”, the “relative rate of DNA alkylation” value [6] was 0.9 and the “krel, 1 relative to 305” value [7] was 1.3-2.3. The “krel, faster than 304” value [7] was 18-33 and the “adenine N3 adduct quantitated” value (DNA [8]) was 95-100%.
For `COC(=O)[C@]1(C)NC2=C(C1=O)[C@@]13C[C@@H]1CN(C(=O)c1cc4cc(OC)c(OC)c(OC)c4[nH]1)C3=CC2=O` [duocarmycin A], the “adenine N3 adduct quantitated” value (DNA [8]) is listed as 86-92%.
In the case of `COc1c(O)c2c(c3cc(C(=O)N4CCc5c4c(O)c(OC)c4[nH]c(C(=O)N6CC7CC78C6=CC(=O)c6[nH]cc(C)c68)cc54)[nH]c13)CCN2C(N)=O` (single isomer, unassigned; (+)) [(+)-CC-1065], the “delayed toxicity” value [9] is listed as “delayed fatal toxicity”.
For `O=C(Nc1ccc2[nH]c(C(=O)N3CC4CC45C3=CC(=O)c3ccccc35)cc2c1)c1cc2ccccc2[nH]1` (single isomer, unassigned) [CBI-indole2], the “relative rate of DNA alkylation, indole2 series” value [4] is listed as 1.0 ×, the “in vivo antitumor activity” value [10] is listed as “potent and efficacious In vivo antitumor activity” and the “delayed toxicity” value [9] is listed as “lacked the delayed fatal toxicity”. The “cytotoxic potency greater than (+)-CPI-indole2 (U71,184)” value [11] was 4 ×.
With `COC(=O)c1cc2c([nH]1)C(=O)C=C1N(C(=O)c3cc4cc(OC)ccc4[nH]3)CC3CC123` (single isomer, unassigned) [compound 305] the “DNA alkylation properties, comparison in words” value (w794 duplex DNA [3]) was “essentially indistinguishable from 1 itself”, the “properties relative to duocarmycin SA or 304” value [5] was “indistinguishable” and the “cytotoxic activity relative to duocarmycin SA or 304 (words)” value ([5]; listed as (+)-305) was “indistinguishable from duocarmycin SA”. For the same compound, the “krel, faster than 304” value [7] was 18-33.
